Assay results published in patent publication US9408393B2, “Bismuth-thiols as antiseptics for agricultural, industrial and other uses” (Microbion Corporation, priority 2010, dated 2016).
Values after ≈ are worked out from the molar mass of the structure shown.

Tests used:
[1] = test system: Enterococcus faecalis; assay: Single-point BisEDT-antibiotic combination FICI; type: cell-based; settings: E Fc 3121
[2] = test system: Enterococcus faecium (VSEfm, VREfm); assay: microbe, parasite or virus in culture; type: cell-based; settings: vancomycin-resistant Enterococcus faecium (VREfm)
[3] = test system: Streptococcus pneumoniae (SP, PRSP); assay: Single-point BisEDT-antibiotic combination FICI; settings: PRSP 5348
[4] = test system: Staphylococcus aureus (SA, MRSA); assay: Single-point BisEDT-antibiotic combination FICI; type: cell-based
[5] = test system: S. aureus strains; assay: In vitro inhibition from PMMA cement bead vehicle; type: cell-based, Staphylococcus aureus; settings: with and without Tobramicin and Vancomycin
[6] = test system: S. epidermidis biofilm; assay: Biofilm prevention concentration (BPC), BisEDT and antibiotics; type: cell-based, Staphylococcus epidermidis; settings: regardless of antibiotic employed
Procedure: S. epidermidis grown in TSB+2% glucose in polystyrene plates for 48 h at 37° C. Gatifloxacin (GF), clindamycin (CM), minocycline (MC), gentamicin (GM), vancomycin (VM), cefazolin (CZ), nafcillin (NC), and rifampicin (RP). […]

[7] = Uninoculated solubility control plate (drug precipitation in test media); type: physicochemical; settings: uninoculated solubility control plates; BisEDT observation at 32 μg/mL
[8] = test system: S. aureus; assay: Contaminated open fracture, rat femur critical defect model; type: in vivo; settings: BT gel 5 mg/ml, 1 ml in defect, with Cefazolin 5 mgKg^−1 s.c. twice daily 3 days, day 14
Source text: Standard errors of the mean are shown as error bars. Animals euthanized early are not excluded from the analysis, however samples from one animal in group 2 have been excluded due to gross contamination.
The aim of this study was to determine whether BTs will reduce infection in a contaminated open fracture model either on their own or with antibiotics. The contaminated rat femur critical defect model is a well-accepted model and was used for the experiments described in this Example. This model offers a standardized model for comparing various possible treatments and their effects on reducing infection and/or improving healing.
Three formulations of microparticulate BTs were produced in a clinically useful hydrogel gel form as described herein.
Two treatment arms were used: in the first arm, BT was used singularly; in the second arm BT was used in conjunction with a systemic antibiotic (ABx).
Six hours after inoculation with S. aureus, the wound was debrided, irrigated with saline and 1 ml of BT gel inserted within the defect.
Six hours after inoculation with S. aureus, the wound was debrided, irrigated with saline and 1 ml of BT gel added inserted within the defect. The antibiotic used was Cefazolin at a dose equivalent to 5 mgKg^−1 delivered via sub-cutaneous injection twice daily for a total of 3-days following the injury. The first dose was administered immediately prior to debridement.
Six hours after inoculation with S. aureus, the wound was debrided and irrigated with saline. The control animals were also treated with Cefazolin as per the regime described above.
The procedure for the in vivo rat injury model was performed as described by Chen et al. (2002 J. Orthop. Res. 20:142; 2005 J. Orthop. Res. 23:816; 2006 J. Bone Joint Surg. Am. 88:1510; 2007 J. Orthop. Trauma 21:693). The rats were anesthetized and prepped for surgery. The anterolateral aspect of the femoral shaft was exposed through a 3-cm incision. The periosteum and attached muscle was stripped from the bone. A polyacetyl plate (27×4×4 mm) was placed on the anterolateral surface of the femur. The plates were predrilled to accept 0.9-mm diameter threaded Kirschner wires. The bases of these plates were formed to fit the contour of the femoral shaft. Pilot holes were drilled through both cortices of the femur using the plate as a template and threaded Kirschner wire was inserted through the plate and femur. The notches that were 6 mm apart on the plate served as a guide for bone removal. A small oscillating saw was used to create the defect while the tissue was cooled by continuous irrigation in an effort to prevent thermal damage.
Several groups of 10 animals each were inoculated with 1×10^5 CFU of S. aureus and treated with BT alone or in combination with antibiotics 6 hours post-inoculation as described above. The groups were as follows: Bis-EDT gel; MB-11 gel; MB-8-2 gel; Bis-EDT gel & Abx; MB-11 gel & Abx; MB-8-2 gel & Abx; Control (Abx alone).
Animals were euthanized 14 days after surgery and bone and hardware sent for microbiological analysis, the results of which are shown in FIG. 7.

[9] = test system: Klebsiella pneumoniae; assay: Single-point BisEDT-antibiotic combination FICI; type: cell-based; settings: KP 1231
[10] = test system: Burkholderia cepacia; assay: Single-point BisEDT-antibiotic combination FICI; type: cell-based; settings: Bcep 1756
[11] = test system: Escherichia coli; assay: Single-point BisEDT-antibiotic combination FICI; type: cell-based
[12] = test system: Staphylococcus aureus (MSSA, MRSA, CA-MRSA); assay: microbe, parasite or virus in culture; type: cell-based
[13] = test system: Pseudomonas aeruginosa; assay: Single-point BisEDT-antibiotic combination FICI; type: cell-based; settings: PA 1380
[14] = test system: Bukholderia multivorans; assay: Single-point BisEDT-antibiotic combination FICI; type: cell-based; settings: Bmult 5665
[15] = test system: Acinetobacter baumanii; assay: Single-point BisEDT-antibiotic combination FICI; type: cell-based; settings: Abau 2594
[16] = test system: E. coli; assay: Broth dilution MIC, BT-antibiotic combinations; type: cell-based; settings: Escherichia coli; E. coli Ampicillin/Chloramphenicol resistant; antibiotic alone
Procedure: Materials & Methods. Susceptibility studies were performed by broth dilution in 96-well tissue culture plates (Nalge Nunc International, Denmark) in accordance with NCCLS protocols (National Committee for Clinical Laboratory Standards. (1997). Methods for Dilution Antimicrobial Susceptibility Tests for Bacteria that Grow Aerobically: Approved Standard M7-A2 and Informational Supplement M100-S10. NCCLS, Wayne, Pa., USA).
Briefly, overnight bacterial cultures were used to prepare 0.5 McFarland standard suspensions, which were further diluted 1:50 (˜2×10^6 cfu/mL) in cation-adjusted Mueller-Hinton broth medium (BBL, Cockeysville, Md., USA). […] Cultures were incubated for 24 h at 37° C. and turbidity was assessed by absorption at 630 nm using an ELISA plate reader (Biotek Instruments, Winooski, Vt., USA) according to the manufacturer's recommendations. […] Viable bacterial counts (cfu/mL) were determined by standard plating on nutrient agar.
The checkerboard method was used to assess the activity of antimicrobial combinations. The fractional inhibitory concentration index (FICI) and the fractional bactericidal concentration index (FBCI) were calculated, according to Eliopoulos et al. (Eliopoulos and Moellering, (1996) Antimicrobial combinations. In Antibiotics in Laboratory Medicine (Lorian, V., Ed.), pp. 330-96, Williams and Wilkins, Baltimore, Md., USA). […]

[17] = test system: resistant E. coli; assay: MIC in Mueller-Hinton II broth, antibiotic + BisEDT; type: cell-based, Escherichia coli; settings: Escherichia coli, read-out: Drug + BE MIC, Chloramphenicol/Ampicillin resistant E. coli; BE 0.33 μg/ml
Source text: Chloramphenicol and ampicillin resistant Escherichia coli were made sensitive to these drugs by the addition of subMIC BisEDT (Table 24).
Tetracycline resistant Escherichia coli were made sensitive to doxycycline by the addition of subMIC BisEDT (Table 25).

[18] = neutral pH; cited from earlier work

CC(=O)NC[C@H]1CN(c2ccc(N3CCOCC3)c(F)c2)C(=O)O1 [Linezolid]
FICI, single-point BisEDT-antibiotic combination [1]: 1.23 | MIC90 [2]: 2 µg/mL (≈ 5.93 µM) | FICI, single-point BisEDT-antibiotic combination [3]: 1.11 | FICI, single-point BisEDT-antibiotic combination ([4]; MRSA 773): 1.23 | FICI, single-point BisEDT-antibiotic combination ([4]; SA 100): 1.23

C1C[S][Bi]([S]CC[S][Bi]2[S]CC[S]2)[S]1 [BisEDT, bismuth-1,2-ethanedithiol]
Effect on S. aureus strains in vitro from PMMA cement beads [5]: inhibitory effects | Biofilm at 0.1 μg/ml BisEDT [6]: no biofilm was detected | Solubility in MIC test media [7]: trace precipitate | S. aureus infection detected on hardware, effect on Cefazolin activity [8]: did not appear to affect Cefazolin activity | S. aureus infection of injured bone, effect on Cefazolin activity [8]: enhanced

C[C@@H](O)[C@H]1C(=O)N2C(C(=O)O)=C(SCCN=CN)C[C@H]12 [Imipenem]
FICI, single-point BisEDT-antibiotic combination [9]: 1.23 | FICI, single-point BisEDT-antibiotic combination [10]: 0.73 | FICI, single-point BisEDT-antibiotic combination ([11]; EC 102): 1.11 | FICI, single-point BisEDT-antibiotic combination ([11]; EC 2232): 1.29 | FICI, single-point BisEDT-antibiotic combination [1]: 0.73 | MIC90 ([12]; MSSA clinical isolates): 0.03 µg/mL (≈ 0.1 µM) | MIC ([12]; S. aureus 29213, one value on a single run, one dilution below published QC range, read-out: MIC, quality control strain): 8 ng/mL (≈ 0.0267 µM) | FICI, single-point BisEDT-antibiotic combination [13]: 1.12 | FICI, single-point BisEDT-antibiotic combination [3]: 0.43 | FICI, single-point BisEDT-antibiotic combination ([4]; MRSA 773): 1.48 | FICI, single-point BisEDT-antibiotic combination ([4]; SA 100): 0.67 | FICI, single-point BisEDT-antibiotic combination [14]: 1.23 | FICI, single-point BisEDT-antibiotic combination [15]: 0.81

O=C(N[C@H](CO)[C@H](O)c1ccc([N+](=O)[O-])cc1)C(Cl)Cl [CM, chloramphenicol]
MIC [16]: 220 µg/mL | MIC [17]: 12.7 µg/mL

Zinc pyrithione
Solubility in water [18]: 8 ppm
